{"source": "patent US20250051727A1", "about": "“CARDIAC ORGANOID WITH INNER PART HAVING CAVITIES AND MULTIPLE LAYERS” (MEDIZINISCHE HOCHSCHULE HANNOVER, priority 2018, published 2025)", "tested_on": "cardiac organoids (from hESC3 NKX2.5-eGFP)", "format": "cell-based, human", "description": "The process was performed for steps a) to n) as described with reference to FIG. 1. Incubation under cell culture conditions was in a 5% CO2 atmosphere at 37° C., using ultra-low attachment 96 well microtiter plates, Nunclon Sphera 96U-well plate available from Thermo Fisher Scientific, as the first vessels. The PSC were the human embryonic stem cell line hESC3 NKX2.5-eGFP. These exemplary PSC were genetically manipulated to express enhanced green fluorescent protein (eGFP) as a reporter under the control of the early cardiomyocyte-specific marker NKX2.5 to indicate early cardiomyocyte differentiation.\nThese PSC were cultivated on cell culture flasks (preferably Geltrex-coated) in E8 medium and detached from the flasks to provide the PSC in suspension. In step a), 5000 PSC suspended in 100 μL of the first medium, which was E8 medium (DMEM/F12, L-ascorbic acid-2-phosphate magnesium (64 mg/L), sodium selenium (14 μg/L), FGF2 (100 μg/L), insulin (19.4 mg/L), NaHCO3 (543 mg/L) and transferrin (10.7 mg/L), TGFβ1 (2 μg/L) or NODAL (100 μg/L), osmolarity adjusted to 340 mOsm at pH7.4) supplemented with 10 μM ROCK inhibitor (Y-27632, catalogue No. 72302, Stemcell Technologies)), were carefully dispensed into wells of the microtiter plate. Centrifugation of step b) was twice for 3 min at 300× g with the centrifuge cooled to 4° C. The centrifuged first vessels each contained one agglomerate on the U-shaped bottom and were carefully placed into a cell culture incubator in order to avoid disturbance of the cells localized at the U-shaped bottom. Incubation of step c) without agitation was for 24 h, resulting in the formation of an aggregate of the cells. For embedding in Matrigel (thawed on ice, 9.7 to 10.1 mg/mL protein content) as the exemplary hydrogel, 20 μL Matrigel were positioned in each well of a microtiter plate, the wells of which forming second vessels, which plate was of the same ultra-low attachment quality as the first. […]", "data": [{"compound": "O=C1CCC(N2C(=O)c3ccccc3C2=O)C(=O)N1", "note": "(stereo not drawn) [Thalidomide]", "values": [{"measurement": "thickness of the myocardial ring compared to Controls (micrographs, FIG. 15)", "value": "substantially thinner than in Controls"}, {"measurement": "NKX2.5-eGFP-positive cells on the outer layer (micrographs, FIG. 15)", "setting": "human, 80 μg/mL", "value": "absence of any NKX2.5-eGFP-positive cells on the outer layer"}, {"measurement": "average diameter of the myocardial ring", "setting": "human, 80 μg/mL", "value": 165, "unit": "μm"}]}]}
